Measurements published in patent US20160355530A1, “HEPATITIS C INHIBITORS AND USES THEREOF” (AbbVie Inc., priority 2010, published 2016).
pEC50, pIC50: −log10 of the molar value. Like-named read-outs stand apart in the source and are kept apart here.

How the values were obtained:
[1] = target: T1, HCV NS5B polymerase 1a-H77 (Hepatitis C virus genotype 1a, UniProt P27958); test: biochemical; set-up: species or system HCV genotype 1a; settings: enzyme, strain 1a H77; read-out: HCV Polymerase Strain 1a H77 IC50
T1 construct: six-histidine tag; made in house; host or cells: E. coli
Outline: (§1)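 Incorporation of [3H]UTP (0.284 μM), alongside 20 μM each CTP and ATP, into RNA copied from a 5 nM 2.1 kb genotype 1b negative-strand template was measured after 3 h at 30° C using purified His-tagged NS5B truncated at residue 570. Product was spermine-precipitated, filtered and scintillation-counted; nonlinear regression gave IC50.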

[2] = target: T2, HCV NS5B polymerase 1a-H77-C316Y (Hepatitis C virus genotype 1a, UniProt P27958, C2736Y); test: biochemical; set-up: species or system HCV genotype 1a
T2 construct: six-histidine tag; made in house; host or cells: E. coli
Outline: as §1

[3] = tested on: HCV NS5B polymerase 1a-H77-C316Y; test: biochemical; set-up: species or system HCV genotype 1a; settings: ratio of enzyme IC50s, 1a H77-C316Y / 1a H77
Outline: as §1

[4] = target: T3, HCV NS5B polymerase 1b BK strain (Hepatitis C virus genotype 1b, UniProt P26663); test: HCV NS5B polymerase enzymatic inhibition assay, strain 1b BK; type: biochemical; settings: enzyme, strain 1b BK; read-out: HCV Polymerase Strain 1b BK IC50
T3 construct: six-histidine tag; made in house; host or cells: E. coli
Outline: as §1

[5] = tested on: HCV 1a-H77 subgenomic replicon; test: microbe, parasite or virus in culture; type: cell-based, HCV genotype 1a; settings: Hepatitis C virus, stable replicon
[6] = tested on: HCV 1b-BB7 subgenomic replicon; test: microbe, parasite or virus in culture; type: cell-based, HCV genotype 1b; settings: Hepatitis C virus, stable replicon
[7] = tested on: chimeric replicon with 2a-J6CF-derived NS5B; test: microbe, parasite or virus in culture; type: cell-based, HCV genotype 2a; settings: Hepatitis C virus, read-out: 2a chimera 5% FBS EC50
[8] = tested on: chimeric replicon with genotype 2b NS5B; test: microbe, parasite or virus in culture; type: cell-based, HCV genotype 2b; settings: Hepatitis C virus, read-out: 2b chimera 5% FBS EC50
[9] = tested on: chimeric replicon with genotype 3a NS5B; test: microbe, parasite or virus in culture; type: cell-based, HCV genotype 3a; settings: Hepatitis C virus, read-out: 3a chimera 5% FBS EC50
[10] = tested on: chimeric replicon with genotype 4a NS5B; test: microbe, parasite or virus in culture; type: cell-based, HCV genotype 4a; settings: Hepatitis C virus, read-out: 4a chimera 5% FBS EC50
[11] = 5% FBS, absence of human plasma, read-out: Stable Replicon 1a H77 5% FBS EC50
[12] = strain 1a H77, 5% FBS + 40% human plasma, read-out: 1a H77 5% FBS + 40% Human Plasma EC50
[13] = strain 1a H77, 5% FBS, no human plasma, read-out: 1a H77 5% FBS EC50
[14] = strain 1a H77, 5% FBS, read-out: 1a H77 5% FBS EC50
[15] = strain 1b BB7, 5% FBS + 40% human plasma, read-out: 1b BB7 5% FBS + 40% Human Plasma EC50
[16] = strain 1b BB7, 5% FBS, no human plasma, read-out: 1b BB7 5% FBS EC50
[17] = strain 1b BB7, 5% FBS, read-out: 1b BB7 5% FBS EC50

T2 sequence (P27958 2421-2990 C2736Y): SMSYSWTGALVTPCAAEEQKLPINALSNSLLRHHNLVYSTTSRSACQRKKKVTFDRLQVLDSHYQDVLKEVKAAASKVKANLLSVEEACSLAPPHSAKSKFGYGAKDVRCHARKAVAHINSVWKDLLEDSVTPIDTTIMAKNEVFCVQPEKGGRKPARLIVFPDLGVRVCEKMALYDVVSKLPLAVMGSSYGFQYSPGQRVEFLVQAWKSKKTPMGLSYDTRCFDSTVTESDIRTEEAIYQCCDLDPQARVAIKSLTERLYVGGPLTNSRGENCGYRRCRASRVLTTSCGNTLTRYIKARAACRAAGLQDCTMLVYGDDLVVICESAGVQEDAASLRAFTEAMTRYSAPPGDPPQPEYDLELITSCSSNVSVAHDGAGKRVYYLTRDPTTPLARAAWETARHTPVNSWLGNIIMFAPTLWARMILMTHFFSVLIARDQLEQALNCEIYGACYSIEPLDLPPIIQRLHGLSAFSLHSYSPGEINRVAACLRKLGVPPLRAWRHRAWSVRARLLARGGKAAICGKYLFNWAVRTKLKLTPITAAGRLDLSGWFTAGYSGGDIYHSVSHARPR
T3 sequence (P26663 2420-2989): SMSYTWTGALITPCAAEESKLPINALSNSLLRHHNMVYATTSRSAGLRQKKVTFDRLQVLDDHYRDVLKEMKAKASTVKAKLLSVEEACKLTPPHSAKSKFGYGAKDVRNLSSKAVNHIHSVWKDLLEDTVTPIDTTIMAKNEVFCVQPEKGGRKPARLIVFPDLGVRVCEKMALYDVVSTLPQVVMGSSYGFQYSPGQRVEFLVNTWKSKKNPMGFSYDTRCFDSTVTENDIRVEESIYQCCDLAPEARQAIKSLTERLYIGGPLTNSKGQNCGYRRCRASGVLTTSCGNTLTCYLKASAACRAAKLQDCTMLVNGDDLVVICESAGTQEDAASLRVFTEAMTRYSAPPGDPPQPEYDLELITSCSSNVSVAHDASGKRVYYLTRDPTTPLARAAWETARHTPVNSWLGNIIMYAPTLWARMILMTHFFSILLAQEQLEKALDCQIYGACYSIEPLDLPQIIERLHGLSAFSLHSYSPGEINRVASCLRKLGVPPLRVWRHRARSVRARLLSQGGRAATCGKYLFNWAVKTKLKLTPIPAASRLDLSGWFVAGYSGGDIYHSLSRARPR
T1 sequence (P27958 2421-2990): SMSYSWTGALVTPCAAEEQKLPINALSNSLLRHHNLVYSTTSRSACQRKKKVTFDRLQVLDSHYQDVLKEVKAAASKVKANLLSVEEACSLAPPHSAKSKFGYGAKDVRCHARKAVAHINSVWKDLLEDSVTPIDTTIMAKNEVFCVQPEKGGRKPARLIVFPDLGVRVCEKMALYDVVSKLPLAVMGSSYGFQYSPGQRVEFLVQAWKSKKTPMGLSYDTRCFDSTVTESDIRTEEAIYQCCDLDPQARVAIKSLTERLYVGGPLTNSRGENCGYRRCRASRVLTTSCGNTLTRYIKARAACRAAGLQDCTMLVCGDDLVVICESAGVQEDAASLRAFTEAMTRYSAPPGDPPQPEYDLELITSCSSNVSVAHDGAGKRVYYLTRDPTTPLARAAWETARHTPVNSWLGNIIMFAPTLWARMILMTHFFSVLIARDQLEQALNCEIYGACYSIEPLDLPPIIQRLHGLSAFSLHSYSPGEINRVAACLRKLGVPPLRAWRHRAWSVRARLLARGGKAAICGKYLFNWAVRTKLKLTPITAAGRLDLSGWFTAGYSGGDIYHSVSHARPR

Structure (SMILES)	pIC50 [1]	pIC50 [2]	C316Y/1a Fold Resistance [3]	pIC50 [4]	pEC50 [5, 11]	pEC50 [5, 12]	pEC50 [5, 13]	pEC50 [5, 14]	pEC50 [6, 15]	pEC50 [6, 16]	pEC50 [6, 17]	pEC50 [7]	pEC50 [8]	pEC50 [9]	pEC50 [10]
C[S+]([O-])CCCN(c1cc2oc(-c3ccc(F)cc3)c(C3=NOCCN3)c2cc1C1CC1)S(C)(=O)=O (stereo not drawn) [Example 139, N-[5-cyclopropyl-3-(5,6-dihydro-4H-1,2,4-oxadiazin-3-yl)-2-(4-fluorophenyl)-1-benzofuran-6-yl]-N-[3-(methylsulfinyl)propyl]methanesulfonamide]	8.11	7.05	11 fold	8.05	7.23	6.19	7.23	7.23	6.02	7.17	7.17	6.00	6.10	6.99	6.24
CS(=O)(=O)CCCN(c1cc2oc(-c3ccc(F)cc3)c(C3=NOCCN3)c2cc1C1CC1)S(C)(=O)=O [Example 140, N-[5-cyclopropyl-3-(5,6-dihydro-4H-1,2,4-oxadiazin-3-yl)-2-(4-fluorophenyl)-1-benzofuran-6-yl]-N-[3-(methylsulfonyl)propyl]methanesulfonamide]	8.30	7.42	8 fold	7.38	7.84	6.91	7.84	7.84	6.82	7.96	7.96	6.56	6.68	7.36	6.72
CC[S+]([O-])CCN(c1cc2oc(-c3ccc(F)cc3)c(C3=NOCCN3)c2cc1C1CC1)S(C)(=O)=O (stereo not drawn) [Example 141, N-[5-cyclopropyl-3-(5,6-dihydro-4H-1,2,4-oxadiazin-3-yl)-2-(4-fluorophenyl)-1-benzofuran-6-yl]-N-[2-(ethylsulfinyl)ethyl]methanesulfonamide]	7.82	6.68	14 fold	6.78	7.41	6.56	7.41	7.41	6.53	7.51	7.51	6.21	6.00	7.28	6.21
CCS(=O)(=O)CCN(c1cc2oc(-c3ccc(F)cc3)c(C3=NOCCN3)c2cc1C1CC1)S(C)(=O)=O [Example 142, N-[5-cyclopropyl-3-(5,6-dihydro-4H-1,2,4-oxadiazin-3-yl)-2-(4-fluorophenyl)-1-benzofuran-6-yl]-N-[2-(ethylsulfonyl)ethyl]methanesulfonamide]	8.15	7.23	8 fold	7.38	7.94	7.39	7.94	7.94	6.96	7.96	7.96	6.71	6.43	7.68	6.79
CCS(=O)(=O)CCCN(c1cc2oc(-c3ccc(F)cc3)c(C3=NOCCN3)c2cc1C1CC1)S(C)(=O)=O [Example 143, N-[5-cyclopropyl-3-(5,6-dihydro-4H-1,2,4-oxadiazin-3-yl)-2-(4-fluorophenyl)-1-benzofuran-6-yl]-N-[3-(ethylsulfonyl)propyl]methanesulfonamide]	8.05	7.12	8 fold	7.38	7.66	6.90	7.66	7.66	6.97	7.92	7.92	6.88	6.86	7.46	6.82
CC[S+]([O-])CCCN(c1cc2oc(-c3ccc(F)cc3)c(C3=NOCCN3)c2cc1C1CC1)S(C)(=O)=O (stereo not drawn) [Example 144, N-[5-cyclopropyl-3-(5,6-dihydro-4H-1,2,4-oxadiazin-3-yl)-2-(4-fluorophenyl)-1-benzofuran-6-yl]-N-[3-(ethylsulfinyl)propyl]methanesulfonamide]	8.15	7.05	13 fold	7.04	7.41	6.60	7.41	7.41	6.48	7.43	7.43	6.42	6.38	7.21	6.42
[2H]C1([2H])NC(c2c(-c3ccc(F)cc3)oc3cc(N(CCCCS(C)(=O)=O)S(C)(=O)=O)c(C4CC4)cc23)=NO1 [Example 150, N-{5-cyclopropyl-3-[(5,5-^2H2)-4,5-dihydro-1,2,4-oxadiazol-3-yl]-2-(4-fluorophenyl)-1-benzofuran-6-yl}-N-[4-(methylsulfonyl)butyl]methanesulfonamide]	8.40	7.38	11 fold	8.30	8.30	6.49	8.30	8.30	6.64	8.40	8.40	7.37	7.51	8.15	7.60
CC(C)CCN(c1cc2oc(-c3ccc(F)cc3)c(C3=NOCC(=O)N3)c2cc1C1CC1)S(C)(=O)=O [Example 162, N-[5-cyclopropyl-2-(4-fluorophenyl)-3-(5-oxo-5,6-dihydro-4H-1,2,4-oxadiazin-3-yl)-1-benzofuran-6-yl]-N-(3-methylbutyl)methanesulfonamide]	7.45	5.92	34 fold	6.15	6.61	5.00	6.61	6.61	5.01	6.49	6.49	6.00	6.00	6.00	< 6.00
CS(=O)(=O)N(CCCc1nnn[nH]1)c1cc2oc(-c3ccc(F)cc3)c(-c3ncc[nH]3)c2cc1C1CC1 [Example 174, N-[5-cyclopropyl-2-(4-fluorophenyl)-3-(1H-imidazol-2-yl)-1-benzofuran-6-yl]-N-[3-(1H-tetrazol-5-yl)propyl]methanesulfonamide]	8.46	7.40	12 fold	7.73	6.49	5.32	6.49	6.49	5.43	6.72	6.72	6.00	6.00	6.54	< 6.00
CS(=O)(=O)N(CCCc1noc(=O)[nH]1)c1cc2oc(-c3ccc(F)cc3)c(-c3ncc[nH]3)c2cc1C1CC1 [Example 175, N-[5-cyclopropyl-2-(4-fluorophenyl)-3-(1H-imidazol-2-yl)-1-benzofuran-6-yl]-N-[3-(5-oxo-4,5-dihydro-1,2,4-oxadiazol-3-yl)propyl]methanesulfonamide]	8.22	7.37	7 fold	7.60	7.10	5.93	7.10	7.10	6.24	7.21	7.21	6.18	6.14	7.21	6.39
